Measurements reported in PMC9145846, “Polycyclic Phenol Derivatives from the Leaves of Spermacoce latifolia and Their Antibacterial and α-Glucosidase Inhibitory Activity” (Molecules, 2022).
In brackets after ≈: the same amount, converted by molar mass. Counter-ions that a name gives are not always drawn. Like-named read-outs stand apart in the source and are kept apart here.

Experiments:
[1] = system: methicillin-resistant Staphylococcus aureus (MRSA); experiment: Antibacterial assay (resazurin, 96-well doubling dilution), MRSA; format: cell-based; settings: for MIC: MRSA, read-out: MIC, MRSA
Description: (§1) The antibacterial assay was monitored in 96-well plates by using a method as described previously. Briefly, 100 μL indicator solution (resazurin in sterile water, 100 μg/mL) was first placed into each of the sterility control wells (11th column) on the 96-well plates, and the indicator solution (about 7.5 mL, 100 μg/mL) was mixed with test bacteria (5 mL, 10^6 cfu/mL, OD600 = 0.07) followed by transferring (100 μL, each) to growth control wells (12th column) and all test wells (1–10th column). Then, each of 100 μL of test compounds (1 mg/mL) in beef extract peptone medium, along with the positive control solutions (prepared by adding kanamycin sulfate and vancomycin instead of the samples) and the negative control solution (3% DMSO of beef extract peptone medium), were applied to the wells in the 1st column of the plates. Once all samples and controls were properly applied to the 1st column of wells on the plate, half of the homogenized content (100 μL solution) was then parallel-transferred from the 1st column wells to the 2nd column wells, and each subsequent well was treated similarly (doubling dilution) up to the 10th column, followed by discarding the last 100 μL aliquot. Finally, the plates were incubated at 37 °C for 5–6 h until the color of growth control change to pink. The lowest concentration for each test compound at which […] was recorded as the MIC value of the test compound. In the bioassay, Gram-(+) bacterial strains of Staphyloccocus aureus (CMCC26003), methicillin-resistant Staphylococcus aureus (MRSA), Bacillus cereus (CMCC63302), Bacillus subtilis (CMCC63501), and Gram-(−) bacterial strain of Escherichia coli (CMCC44102) were used for the test, and they were all purchased from the Guangdong Institute of Microbiology (Guangzhou, China).

[2] = system: Bacillus cereus (CMCC63302); experiment: Antibacterial assay (resazurin, 96-well doubling dilution), BC; format: cell-based
Description: as §1

[3] = system: Escherichia coli (CMCC44102); experiment: Antibacterial assay (resazurin, 96-well doubling dilution), EC; format: cell-based
Description: as §1

[4] = system: Bacillus subtilis (CMCC63501); experiment: Antibacterial assay (resazurin, 96-well doubling dilution), BS; format: cell-based
Description: as §1

[5] = system: Staphyloccocus aureus (CMCC26003); experiment: Antibacterial assay (resazurin, 96-well doubling dilution), SA; format: cell-based; settings: for MIC: read-out: MIC, SA
Description: as §1

α-glucosidase = α-glucosidase (Saccharomyces cerevisiae, UniProt P53341); experiment: α-Glucosidase inhibition assay (PNPG substrate); settings: read-out: α-Glucosidase inhibitory activity IC50; mean ± SD (n = 3); pH 6.8, PNPG, 37 °C, 15 min
Chain of α-glucosidase (P53341 whole entry): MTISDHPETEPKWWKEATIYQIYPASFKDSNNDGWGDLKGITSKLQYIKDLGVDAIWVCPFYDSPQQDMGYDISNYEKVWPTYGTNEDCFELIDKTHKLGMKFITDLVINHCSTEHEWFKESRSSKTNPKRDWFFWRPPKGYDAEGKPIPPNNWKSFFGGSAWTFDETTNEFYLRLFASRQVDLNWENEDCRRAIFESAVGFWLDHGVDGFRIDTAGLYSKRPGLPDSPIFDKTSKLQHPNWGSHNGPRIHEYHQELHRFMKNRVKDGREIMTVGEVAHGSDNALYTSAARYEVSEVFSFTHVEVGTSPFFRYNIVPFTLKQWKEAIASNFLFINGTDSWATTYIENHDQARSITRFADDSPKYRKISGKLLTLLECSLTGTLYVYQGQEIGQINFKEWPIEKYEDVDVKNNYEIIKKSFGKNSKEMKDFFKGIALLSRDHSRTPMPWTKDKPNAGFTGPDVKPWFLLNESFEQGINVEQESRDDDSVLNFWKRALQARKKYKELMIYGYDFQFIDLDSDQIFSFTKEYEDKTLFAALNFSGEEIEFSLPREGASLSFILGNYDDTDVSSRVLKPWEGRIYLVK
Description: The a-glucosidase inhibitory activity of the ten isolated compounds was determined in 96-well microtiter plates following the method as described previously [15, 42]. In brief, α-glucosidase (20 μL, 0.5 U/mL) and various concentrations (500, 250, 125, 62.5, 31.2, 15.6, 7.8, 3.9 µg/mL) of tested compounds (120 μL) in 67 mM phosphate buffer (pH 6.8) were mixed in 96-well microtiter plates at room temperature for 10 min. Reactions were initiated by addition of 20 μL of 5.0 mM p-nitrophenyl-α-d-glucopyranoside (PNPG). The reaction mixture was incubated for 15 min at 37 °C in a final volume of 160 μL. Then, 0.2 M Na2CO3 (80 μL) was added to the incubation solution to stop the reaction and the absorbance was determined at 405 nm (for p-nitrophenol). The negative blank was set by adding phosphate buffer instead of test compounds via the same experimental procedure. […] The blank was set by adding phosphate buffer instead of the α-glucosidase using the same method. Inhibition rate (%) = [(ODnegative control − ODblank) − (ODtest − ODtest blank)]/(ODnegative blank − ODblank) × 100%. IC50 values were calculated and expressed as means ± standard deviations (SD) and SPSS 23.0 software was used for the analysis of variances.

[6] = methicillin-resistant Staphylococcus aureus, 37 °C, 5–6 h, resazurin colour change
[7] = CMCC63302, 37 °C, 5–6 h, resazurin colour change, read-out: MIC, BC
[8] = CMCC44102, 37 °C, 5–6 h, resazurin colour change, read-out: MIC, EC
[9] = CMCC63501, 37 °C, 5–6 h, resazurin colour change, read-out: MIC, BS
[10] = Staphyloccocus aureus, 37 °C, 5–6 h, resazurin colour change
[11] = 37 °C, 5–6 h, resazurin colour change

Molecule	MIC [1, 6] [µg/mL]	MIC [2, 7] [µg/mL]	MIC [3, 8] [µg/mL]	MIC [4, 9] [µg/mL]	MIC [5, 10] [µg/mL]	MIC, MRSA [1, 6]	further results
O=c1cc(-c2ccc(O)cc2)oc2cc(O)c(O)cc12 [Compound 9, 6,7,4′-trihydroxyflavone]	> 100	> 100	> 100	> 100	> 100	–	–
6,7,8,4′-tetramethoxyflavone [Compound 10]	–	–	–	–	–	>100 µg/mL	MIC, BC [2, 11]: 62.5 µg/mL; MIC, EC [3, 11]: >100 µg/mL; MIC, BS [4, 11]: 15.6 µg/mL; MIC, SA [5, 10]: 62.5 µg/mL; IC50 (α-glucosidase): > 1000 µM
CN[C@H](CC(C)C)C(=O)N[C@H]1C(=O)N[C@@H](CC(N)=O)C(=O)N[C@H]2C(=O)N[C@H]3C(=O)N[C@H](C(=O)N[C@H](C(=O)O)c4cc(O)cc(O)c4-c4cc3ccc4O)[C@H](O)c3ccc(c(Cl)c3)Oc3cc2cc(c3O[C@@H]2O[C@H](CO)[C@@H](O)[C@H](O)[C@H]2O[C@H]2C[C@](C)(N)[C@H](O)[C@H](C)O2)Oc2ccc(cc2Cl)[C@H]1O [V, Vancomycin, reference compound]	–	–	–	–	–	–	MIC ([1]; Staphylococcus aureus): 3.9 µg/mL (≈ 2.69 µM); MIC ([2]; CMCC63302, read-out: MIC, BC): 1.95 µg/mL (≈ 1.35 µM); MIC ([3]; CMCC44102, read-out: MIC, EC): > 100 µg/mL; MIC ([4]; CMCC63501, read-out: MIC, BS): 1.95 µg/mL (≈ 1.35 µM); MIC [5]: 1.95 µg/mL (≈ 1.35 µM)
NC[C@H]1O[C@H](O[C@H]2[C@H](O)[C@@H](O[C@H]3O[C@H](CO)[C@@H](O)[C@H](N)[C@H]3O)[C@H](N)C[C@@H]2N)[C@H](O)[C@@H](O)[C@@H]1O [K, Kanamycin sulfate, reference compound]	> 100	3.9	1.95	1.95	1.95	–	–
COc1cc2ccc(=O)oc2c(O)c1O [Compound 7, 7,8-dihydroxy-6-methoxycoumarin]	> 100	> 100	> 100	> 100	> 100	–	–
COc1cc2oc(=O)ccc2cc1O [Compound 6, isoscopoletin]	> 100	> 100	> 100	> 100	> 100	–	–
O=c1ccc2cc(O)c(O)cc2o1 [Compound 5, esculetin]	> 100	31.2 (≈ 175 µM)	> 100	7.81 (≈ 43.8 µM)	31.2 (≈ 175 µM)	inactive	–

Now from value to molecule, other results behind:

MIC [1, 6] [µg/mL]	MIC [2, 7] [µg/mL]	MIC [3, 8] [µg/mL]	MIC [4, 9] [µg/mL]	MIC [5, 10] [µg/mL]	MIC, MRSA [1, 6]	Molecule	further results
> 100	31.2 (≈ 103 µM)	> 100	15.6 (≈ 51.3 µM)	15.6 (≈ 51.3 µM)	inactive	COc1c(O)cc2c(=O)oc3c(OC)c(O)ccc3c2c1O [Compound 8, 3,8,10-trihydroxy-4,9-dimethoxy-6H-benzo[c]chromen-6-one]	–
> 100	31.2 (≈ 128 µM)	> 100	31.2 (≈ 128 µM)	62.5 (≈ 256 µM)	inactive	CC(=O)c1cc2c(O)c3oc(=O)ccc3cc2o1 [Compound 1, 2-acetyl-4-hydroxy-6H-furo [2,3-g]chromen-6-one]	–
> 100	62.5 (≈ 226 µM)	> 100	62.5 (≈ 226 µM)	62.5 (≈ 226 µM)	inactive	CC(O)(CO)c1cc2c(O)c3oc(=O)ccc3cc2o1 (stereo not drawn) [Compound 2, 2-(1′,2′-dihydroxypropan-2′-yl)-4-hydroxy-6H-furo [2,3-g][1] benzopyran-6-one]	–
1.95 (≈ 4.77 µM)	1.95 (≈ 4.77 µM)	> 100	1.95 (≈ 4.77 µM)	1.95 (≈ 4.77 µM)	–	COc1c(O)cc2oc3cc4c(c(O)c3c(=O)c2c1CC=C(C)C)C=CC(C)(C)O4 [Compound 4, 5,9-dihydroxy-8-methoxy-2,2-dimethyl-7-(3-methylbut-2-enyl)-2H,6H-pyrano [3,2-b]xanthen-6-one]	–
